Target: PAN endonuclease (Influenza A virus, UniProt C3W5S0)
Assay: FRET-based enzymatic assay of PAN endonuclease inhibition
Format: biochemical

Compound | enzymatic inhibition upon light irradiation | IC50 (read-out: IC50 (dark)) [µM]
[Ru(2,2´-bipyridine)2(pyridine)2][Cl]2 [Compound 9] | negligible | –
[Cl][Ru][Cl].c1ccc(-c2ccccn2)nc1.c1ccc(-c2ccccn2)nc1 [Compound 2, Ru(2,2´-bipyridine)2(Cl)2] | – | > 100

Source: paper PMC7944940 (Dalton transactions (Cambridge, England : 2003), 2021)
